In patent US20210127671A1, “HYPERSENSITIVE RESPONSE ELICITOR PEPTIDES AND USE THEREOF” (priority 2015, published 2021):
Read-outs that look alike come from different tables or passages of the source. Peptide text beside a SMILES is read from it.

Columns and labels:
[1] = Stability against chemical degradation in water or pH buffers at 50° C. (HPLC); settings: for % remaining after 14 days incubation: 50 mM TES, pH 8.0, 50° C.; for precipitation during stability test: 0.2% AI, 0.25% Proxel GXL, 50 mM buffers; for precipitation during stability test / stability after 14 days: 50° C.; for solution stability (in words): aqueous solution; for stability after 14 days: 50 mM EDTA, pH 8 (FIG. 24)
Protocol: Briefly, the stability and resistance to chemical degradation of peptides can be assessed as follows using peptide samples having an initial purity of at least about 80%, at least about 82%, at least about 84%, at least about 86%, at least about 88%, at least about 90%, at least about 92%, at least about 94%, at least about 96%, or at least about 98%. For water stability, the peptide is dissolved directly in de-ionized water. For chemical degradation tests, the peptide is dissolved in an aqueous solution containing 50 mM pH buffer and 0.25% Proxel GXL. Exemplary pH buffers include, without limitation: (i) Citrate pH 5.6; (ii) MES pH 6.2; (iii) MOPS pH 6.5; (iv) imidazole pH 7.0; (v) Citrate pH 7.2; (vi) EDDS, pH 7.3; (vii) EDTA pH 8.0; (viii) sodium phosphate pH 8.0; or (ix) TES pH 8.0. Peptides are first dissolved in the aqueous solution at a concentration of 0.5 mg/ml. […] An initial sample of the peptide is removed, diluted 10× with water, and analyzed by reverse-phase HPLC. Briefly, 20 μl of the sample is injected into the solvent flow of an HPLC instrument and analyzed on a C18 HPLC column (YMC ProPack C18, YMC, Japan, or C18 Stablebond, Agilent Technologies, USA) using either a triethylamine phosphate in water/acetonitrile gradient or a 0.1% TFA in water/0.1% TFA in acetonitrile gradient to separate different peptide species. Eluting peptides are monitored by UV absorbance at 218 nm and quantified based on the area under the peak. The area under the peak for the initial peptide sample is treated as the standard for relative quantification in subsequent runs. At regular intervals (e.g., 1, 3, 7, 10, 14, 17, and 21 days), each peptide sample is surveyed and analyzed by HPLC as described above.
Stability against chemical degradation was assessed in various pH buffers by creating 0.2% AI solutions of pure, chemically synthesized peptide in deionized water, 0.25% weight to volume of Proxel® GXL (biocide), and 50 millimolar (mM) of eight buffers (separately) as follows: MES pH 5.6, MOPS pH 6.5, Citrate pH 7.2, EDDS pH 7.3, EDTA pH 8, Phosphate pH 8, Imidazole pH 8, and TES pH 8.

[2] = 0.2% AI in deionized water, 48 hours at room temperature

Q: Which “% remaining after 14 days incubation” value [1] does the source give for CC[C@H](C)[C@H](NC(=O)CNC(=O)[C@H](CCC(N)=O)NC(=O)[C@@H](N)CC(N)=O)C(=O)N[C@@H](CO)C(=O)N[C@@H](CCC(=O)O)C(=O)N[C@@H](CCCCN)C(=O)N[C@@H](CCC(N)=O)C(=O)N[C@@H](CC(C)C)C(=O)N[C@@H](CC(=O)O)C(=O)N[C@@H](CCC(N)=O)C(=O)N[C@@H](CC(C)C)C(=O)N[C@@H](CC(C)C)C(=O)N[C@H](C(=O)N[C@@H](CCC(N)=O)C(=O)N[C@@H](CC(C)C)C(=O)N[C@H](C(=O)N[C@H](C(=O)N[C@@H](C)C(=O)N[C@@H](CC(C)C)C(=O)N[C@@H](CC(C)C)C(=O)N[C@@H](CCC(N)=O)C(=O)N[C@@H](CCC(N)=O)C(=O)O)[C@@H](C)O)[C@@H](C)CC)[C@@H](C)O [Peptide P1-18T] (H-NQGISEKQLDQLLTQLITALLQQ-OH; N-terminus and C-terminus assumed) here?
A: 71%

Q: What does the source list for CC[C@H](C)[C@H](NC(=O)CNC(=O)[C@H](CCC(N)=O)NC(=O)[C@@H](N)CO)C(=O)N[C@@H](CO)C(=O)N[C@@H](CCC(=O)O)C(=O)N[C@@H](CCCCN)C(=O)N[C@@H](CCC(N)=O)C(=O)N[C@@H](CC(C)C)C(=O)N[C@@H](CC(=O)O)C(=O)N[C@@H](CCC(N)=O)C(=O)N[C@@H](CC(C)C)C(=O)N[C@@H](CC(C)C)C(=O)N[C@@H](CO)C(=O)N[C@@H](CCC(N)=O)C(=O)N[C@@H](CC(C)C)C(=O)N[C@H](C(=O)N[C@@H](CCC(N)=O)C(=O)N[C@@H](C)C(=O)N[C@@H](CC(C)C)C(=O)N[C@@H](CC(C)C)C(=O)N[C@@H](CCC(N)=O)C(=O)N1CCC[C@H]1C(=O)O)[C@@H](C)CC [Peptide P4-14S] (H-SQGISEKQLDQLLSQLIQALLQP-OH; N-terminus and C-terminus assumed)?
A: precipitation during stability test [1]: remained in solution; solution stability (in words) [1]: highly stable peptide; solubility [2]: completely soluble

Q: With CC[C@H](C)[C@H](N)C(=O)N[C@H](C(=O)N1CCC[C@H]1C(=O)N[C@@H](CC(=O)O)C(=O)NCC(=O)N[C@@H](CCC(N)=O)C(=O)NCC(=O)NCC(=O)NCC(=O)N[C@@H](CCC(N)=O)C(=O)N[C@H](C(=O)NCC(=O)N[C@@H](CC(=O)O)C(=O)N[C@@H](CC(N)=O)C(=O)N1CCC[C@H]1C(=O)N[C@@H](CC(C)C)C(=O)N[C@@H](CC(C)C)C(=O)N[C@@H](CCCCN)C(=O)N[C@@H](C)C(=O)N[C@@H](CCSC)C(=O)N[C@@H](CC(C)C)C(=O)N[C@@H](CCCCN)C(=O)N[C@@H](CC(C)C)C(=O)N[C@H](C(=O)N[C@@H](C)C(=O)O)[C@@H](C)CC)[C@@H](C)CC)[C@@H](C)O [Peptide P19] (H-ITPDGQGGGQIGDNPLLKAMLKLIA-OH; N-terminus and C-terminus assumed) as the molecule, how does the remaining at 336 h ([1]; buffer or solvent) read?
A: 52%

Q: With CC[C@H](C)[C@H](NC(=O)[C@@H](NC(=O)[C@H](CCC(N)=O)NC(=O)[C@H](CCCNC(=N)N)NC(=O)[C@@H](N)CC(=O)O)[C@@H](C)O)C(=O)N[C@@H](CCC(=O)O)C(=O)N[C@@H](CCC(N)=O)C(=O)N[C@@H](CC(C)C)C(=O)N[C@@H](C)C(=O)N[C@@H](CCC(N)=O)C(=O)N[C@@H](CC(C)C)C(=O)N[C@@H](CC(C)C)C(=O)N[C@@H](C)C(=O)N[C@@H](CCC(N)=O)C(=O)N[C@@H](CC(C)C)C(=O)N[C@@H](CC(C)C)C(=O)N[C@@H](CCCCN)C(=O)N[C@@H](CO)C(=O)N[C@@H](CC(C)C)C(=O)N[C@@H](CC(C)C)C(=O)N[C@@H](CO)C(=O)N1CCC[C@H]1C(=O)O [Peptide P18-4] (H-DRQTIEQLAQLLAQLLKSLLSP-OH) as the molecule, how does the “stability after 14 days” value [1] read?
A: 60%

Q: Which “stability after 14 days” value [1] does the source give for CC[C@H](C)[C@H](NC(=O)[C@@H](NC(=O)[C@H](CCC(N)=O)NC(=O)[C@H](CCCNC(=N)N)NC(=O)[C@H](CC(=O)O)NC(=O)[C@@H](NC(=O)[C@@H]1CCCN1C(=O)[C@H](CCC(N)=O)NC(=O)[C@@H](N)CCC(N)=O)[C@@H](C)CC)[C@@H](C)O)C(=O)N[C@@H](CCC(=O)O)C(=O)N[C@@H](CCC(N)=O)C(=O)N[C@@H](CCSC)C(=O)N[C@@H](C)C(=O)N[C@@H](CCC(N)=O)C(=O)N[C@@H](CC(C)C)C(=O)N[C@@H](CC(C)C)C(=O)N[C@@H](C)C(=O)N[C@@H](CCC(N)=O)C(=O)N[C@@H](CC(C)C)C(=O)N[C@@H](CC(C)C)C(=O)N[C@@H](CCCCN)C(=O)N[C@@H](CO)C(=O)N[C@@H](CC(C)C)C(=O)N[C@@H](CC(C)C)C(=O)O [Peptide P18-1] (H-QQPIDRQTIEQMAQLLAQLLKSLL-OH) here?
A: > 90%

Q: For CC[C@H](C)[C@H](N)C(=O)N[C@H](C(=O)N1CCC[C@H]1C(=O)N[C@@H](CC(=O)O)C(=O)NCC(=O)N[C@@H](CCC(N)=O)C(=O)NCC(=O)NCC(=O)NCC(=O)N[C@@H](CCC(N)=O)C(=O)N[C@H](C(=O)NCC(=O)N[C@@H](CC(=O)O)C(=O)N[C@@H](CC(N)=O)C(=O)N1CCC[C@H]1C(=O)N[C@@H](CC(C)C)C(=O)N[C@@H](CC(C)C)C(=O)N[C@@H](CCCCN)C(=O)N[C@@H](C)C(=O)N[C@@H](CC(C)C)C(=O)N[C@@H](CC(C)C)C(=O)N[C@@H](CCCCN)C(=O)N[C@@H](CC(C)C)C(=O)N[C@H](C(=O)N[C@@H](C)C(=O)O)[C@@H](C)CC)[C@@H](C)CC)[C@@H](C)O [Peptide P19-20L] (H-ITPDGQGGGQIGDNPLLKALLKLIA-OH; N-terminus and C-terminus assumed), which “stability compared with P19 (in words)” value ([1]; 50 mM citrate pH 7.2 or 50 mM TES, pH 8.0) is on record?
A: modest increase in stability

Q: For CC[C@H](C)[C@H](NC(=O)CNC(=O)[C@H](CCC(N)=O)NC(=O)[C@@H](N)CC(N)=O)C(=O)N[C@@H](CO)C(=O)N[C@@H](CCC(=O)O)C(=O)N[C@@H](CCCCN)C(=O)N[C@@H](CCC(N)=O)C(=O)N[C@@H](CC(C)C)C(=O)N[C@@H](CC(=O)O)C(=O)N[C@@H](CCC(N)=O)C(=O)N[C@@H](CC(C)C)C(=O)N[C@@H](CC(C)C)C(=O)N[C@H](C(=O)N[C@@H](CCC(N)=O)C(=O)N[C@@H](CC(C)C)C(=O)N[C@H](C(=O)N[C@@H](C)C(=O)N[C@@H](C)C(=O)N[C@@H](CC(C)C)C(=O)N[C@@H](CC(C)C)C(=O)N[C@@H](CCC(N)=O)C(=O)N[C@@H](CCC(N)=O)C(=O)O)[C@@H](C)CC)[C@@H](C)O [Peptide P1-18A] (H-NQGISEKQLDQLLTQLIAALLQQ-OH; N-terminus and C-terminus assumed), which “% remaining after 14 days incubation” value [1] is on record?
A: 47%

Q: With CC[C@H](C)[C@H](NC(=O)CNC(=O)[C@H](CCC(=O)O)NC(=O)[C@@H](N)CC(N)=O)C(=O)N[C@@H](CO)C(=O)N[C@@H](CCC(=O)O)C(=O)N[C@@H](CCCCN)C(=O)N[C@@H](CCC(=O)O)C(=O)N[C@@H](CC(C)C)C(=O)N[C@@H](CC(=O)O)C(=O)N[C@@H](CCC(=O)O)C(=O)N[C@@H](CC(C)C)C(=O)N[C@@H](CC(C)C)C(=O)N[C@H](C(=O)N[C@@H](CCC(=O)O)C(=O)N[C@@H](CC(C)C)C(=O)N[C@H](C(=O)N[C@@H](CCC(=O)O)C(=O)N[C@@H](C)C(=O)N[C@@H](CC(C)C)C(=O)N[C@@H](CC(C)C)C(=O)N[C@@H](CCC(N)=O)C(=O)N[C@@H](CCC(N)=O)C(=O)O)[C@@H](C)CC)[C@@H](C)O [P1-2E,8E,11E,15E,18E] (H-NEGISEKELDELLTELIEALLQQ-OH; N-terminus and C-terminus assumed) as the molecule, how does the “precipitation during stability test” value [1] read?
A: remained in solution

Q: And the “solution stability (in words)” value [1]?
A: improved solubility and stability when compared with P1

Q: What about the solubility [2] of the same molecule?
A: soluble

Q: Which results are given for CC[C@H](C)[C@H](NC(=O)CNC(=O)[C@H](CCC(N)=O)NC(=O)[C@@H](N)CC(N)=O)C(=O)N[C@@H](CO)C(=O)N[C@@H](CCC(=O)O)C(=O)N[C@@H](CCCCN)C(=O)N[C@@H](CCC(N)=O)C(=O)N[C@@H](CC(C)C)C(=O)N[C@@H](CC(=O)O)C(=O)N[C@@H](CCC(N)=O)C(=O)N[C@@H](CC(C)C)C(=O)N[C@@H](CC(C)C)C(=O)N[C@H](C(=O)N[C@@H](CCC(N)=O)C(=O)N[C@@H](CC(C)C)C(=O)N[C@H](C(=O)N[C@@H](CCCCN)C(=O)N[C@@H](C)C(=O)N[C@@H](CC(C)C)C(=O)N[C@@H](CC(C)C)C(=O)N[C@@H](CCC(N)=O)C(=O)N[C@@H](CCC(N)=O)C(=O)O)[C@@H](C)CC)[C@@H](C)O [Peptide P1-18K] (H-NQGISEKQLDQLLTQLIKALLQQ-OH; N-terminus and C-terminus assumed)?
A: % remaining after 14 days incubation [1]: 58%; solubility: ≥ 20 mg/mL
